# pEC50: −log10 of the molar value. Read-outs that look alike come from different tables or passages of the source.
# Assays:
# [1] = system: in situ perfused rat hearts; settings: for Reperfusion-induced arrhythmias VF % incidence / Reperfusion-induced arrhythmias VT % incidence: control 83; for arrhythmias occurring during the ischaemic phase: at the higher concentrations
# Protocol: (§1) A model of in situ perfused rat hearts subjected to 20 minutes coronary artery occlusion to induce ischaemia, followed by reperfusion was used to investigate reperfusion-induced arrhythmias.
# (§2) Rats (250-300 g) were anaesthetised (pentobarbitone 60 mg/kg, I.P.) and heparinised (200 U/rat I.V.) The thorax was then opened and a metal cannula (ID 1 mm) inserted and tied into the ascending aorta, to commence Langendorff perfusion in situ (31). The interval from opening the chest to commencing heart perfusion was between 50 and 70 seconds. The perfusate was Krebs buffer, with coronary flow controlled by a Ismatac peristaltic pump at a rate of 5 ml/g heart weight/min for the non-ischaemic perfusion. At this flow rate the coronary perfusion pressure was between 32-38 mmHg, measured by pressure transducer (Gould Statham model p23) connected to the sidearm of the perfusion line. Following aortic cancellation, pulmonary vessels were tied off. In some preparations, ventricular pressure was measured by inserting a Millar micro-tip transducer catheter into the left ventricular cavity via the apex. All parameters--coronary perfusion pressure, ventricular pressure, and epicardial ECG, were constantly recorded on a Grass model 7 polygraph. Two hearts were perfused and simultaneously studied.
# (§3) A silk suture (4.0) was positioned loosely around the left coronary artery 2-3 mm from its origin. Two silk releasing rings were placed around the suture for subsequent release of occlusion. Successful occlusion of the artery, inducing regional ischaemia, was indicated by increases in coronary perfusion pressure of at least 30%. Perfusion pressure was adjusted to non-ischaemic perfusion levels during the ischaemic period.
# (§4) Drugs were added to the perfusion via a Harvard Model 22 pump. The drug flow was less than 1% of perfusion flow to ensure constant perfusate parameters. Unless mentioned otherwise, the drugs were present 10 minutes before, and during the entire ischaemic and reperfusion periods.
# (§5) Heart preparations were allowed to stabilise for at least 20 minutes prior to commencing studies. Following 10 minute drug incubation, the left coronary artery was ligated to induce local ischaemia, for a period of 20 minutes. At the end of this ischaemic period, the ligature was released and hearts perfused at pre-ischaemic flow for a period of 5 minutes. Ventricular arrhythmias, occurring during ischaemia or during the first 2 minutes of reperfusion were defined according to the Lambeth Conventions (32).
# Incidence of arrhythmias was analysed using a .chi.^2 test, with n≥8 for each group.
# [2] = system: Ins(1,4,5)P3 release; assay: Ins(1,4,5)P3 mass in isolated perfused rat hearts, 2 min reperfusion after 20 min global ischaemia (competitive binding assay); settings: for Ins(1,4,5)P3 mass: 2 min reperfusion after 20 min global ischaemia, control 200 ± 18
# Protocol: (§6) Adult male sprague dawley rats 250-300 g were used. Where indicated, rats were treated with reserpine (5 mg/kg I.P. for 18 hrs prior to killing) to deplete endogenous noradrenaline stores.. Rats were heparinized 1 U/g I.P. 30 minutes prior to killing by decapitation. Hearts were rapidly excised and immediately chilled in ice-cold saline. Under ice-cold solution, hearts were cannulated via the ascending aorta as described by Langendorff and perfused retrogradely at a rate of 5 ml/min with HEPES-buffered Krebs solution equilibrated with 5%CO2 -95%O2 at 37° C. Initial perfusion was in a non-recirculating manner to remove internal blood. Hearts were allowed to warm up gradually and, when free of internal blood, transferred to a 37° C. water-jacketed organ bath containing carbogenated Krebs medium, and perfusion continued in a recirculating manner. Following a 15 minute equilibration period, hearts were labelled with [^3 H]-inositol, 2 μCi/ml for 2 h. Hearts were monitored throughout the labelling period for strong rhythmic beating.
# (§7) Following labelling, the [^3 H]-inositol-containing medium was removed, and replaced with Krebs medium containing propranolol (10^-6 M) and lithium chloride (50 mM) to block β-adrenergic receptors and to inhibit InsP metabolism by InsP 1'-phosphatase respectively (20). Hearts were perfused with propranolol, LiCi solution for 10 minutes prior to ischaemia. Antagonists, when administered, were included in this 10 minute preincubation. Normothermic global ischaemia was induced by terminating perfusion for various times up to 30 minutes. Reperfusion was examined following a 20 minute ischaemic period by resuming perfusion at 5 ml/min. Reactions were terminated by freezing hearts in liquid N2 following excision at the atrioventricular junction. Frozen ventricles were weighed and inositol phosphates extracted as described below.
# (§8) Inositol phosphates were extracted from ventricle samples in 3.5 ml ice-cold 5% trichloroacetic acid (TCA), 2.5 mM EDTA, 5 mM phytate solution, as described previously (21). Briefly, ventricles were homogenised with two 10 second passes of a "Polytron" homogenizer separated by 15 second periods on ice. Samples were homogenised further using a Potter-Elvejheim homogeniser followed by brief sonication. Homogenised samples were centrifuged (5000 rpm, 10 min, 4° C.) to remove TCA insoluble material. Supernatants were collected, and the remaining pellet re-extracted in 1.5 ml TCA, EDTA, phytate. Supernatants were pooled and freon, tri-n-ocylamine (1:1 v/v 0.75 ml:1 ml TCA solution) was added, mixed thoroughly, and phases separated by low speed centrifugation (2000 rpm, 10 min 4° C.). The resultant aqueous phase, containing inositol phosphates was collected and treated with proteinase K (50 μg/ml, 2 hr, 50° C.). This process was necessary to preserve the chromatography column. Treated samples were passed through a 1 ml Dowex-50 column (4% cross-linked 4-400 mesh size) and eluted with 1 ml water (22). Urea (0.05 M final) was added (23) and samples lyophilized prior to high performance liquid chromatography (HPLC) analysis. Recovery of inositol phosphates using this method was greater than 95% for each isomer, as estimated by addition of [^3 H]-labelled standards to extractions of unlabelled hearts.
# Mass of Ins(1,4,5)P3 was measured using a competitive binding assay (Amersham TRK 1000) essentially as described previously (26). Ventricle samples were prepared as described above except for the omission of [^3 H]-label during the 2 hr perfusion of hearts prior to ischaemia, and for the use of 5 mm ATP instead of phytate in the extraction procedure.
# Protein concentration was determined in aliquots of TCA pellet following InsP extraction using a modified Lowry method with Bovine Serum Albumin as a standard.
# Values presented are mean ±SEM, for n=4 unless otherwise stated. Statistical analysis of results involved Students' unpaired "t-test" for all InsP data.
# [3] = system: PI-PLC kidney cy; settings: cytosolic enzyme; from the literature (35); cited from earlier work
# [4] = system: Ins(1,4,5)P3 release; assay: Thrombin-stimulated release of Ins(1,4,5)P3 in heart tissue; settings: at concentrations similar to those inhibiting the noradrenaline response under reperfusion
# [5] = system: hearts from reserpinized rats; assay: Arrhythmic effect of thrombin under reperfusion conditions, perfused hearts from reserpinized rats; design: species or system rat; settings: reserpinized hearts
# Protocol: as §1, §2, §3, §4, §5
# The finding that thrombin directly stimulated release of Ins(1,4,5)P3 in heart indicates the possibility that thrombin might cause arrhythmias directly via this mechanism. Experiments were performed using hearts from reserpinized rats so that arrhythmic events initiated by noradrenaline were eliminated. Reperfusion arrhythmias were not observed in hearts from reserpinized animals. […] Furthermore, these arrhythmias were inhibited by gentamicin, indicating a relationship to release of Ins(1,4,5)P3 (Table 2).
# [6] = system: PI-PLC heart rep; assay: Inhibition of PI-PLC in hearts under reperfusion conditions; design: species or system rat
# Protocol: as §6, §7
# Mass of Ins(1,4,5)P3 was measured using a competitive binding assay (Amersham TRK 1000) essentially as described previously (26). […]
# [7] = system: PI-PLC kidney me; settings: membrane enzyme; from the literature (35); cited from earlier work
# [8] = system: rats
# Protocol: Rats were not heparinised so that effects of thrombin will be contributory to observed arrhythmias.
# Rats were anaesthetised with pentobarbitone (60 mg/Kg IP) and artificially ventilated with room air. The chests were opened via the forth intercostal space, and the heart exposed. A 4.0 suture was placed around the left coronary artery and then passed through a guided polyethylene cannula. The thorax was closed leaving the threaded cannula outside the chest. The right carotid artery was cannulated for recording of arterial blood pressure. After stabilisation for 20-30 minutes, the left coronary artery was ligated by pulling the ends of the ligature through the tube and securing them by clamping the tube together with the threads. The ischaemic period was 10 minutes followed by reperfusion. Arterial blood pressure and a lead II ECG was recorded 3 minutes before and during ischaemia, and for the first 5 minutes of reperfusion. […] The size of the ischaemic area was determined at the end of the experiment by the dye method. […] Gentamicin was infused at a dose of 2.5-10 mg/Kg/min prior to initiation of ischaemia and maintained throughout the protocol.
# [9] = system: PC-PLD brain; settings: read-out: average EC50 PC-PLD brain; from the literature (35); cited from earlier work
# [10] = system: isolated neonatal cardiomyocytes; assay: Inositol phosphate accumulation in isolated neonatal cardiomyocytes; format: cell-based
# [11] = system: inositol phosphate accumulation in heart tissue; assay: Inositol phosphate accumulation in healthy (normoxic) heart tissue; design: species or system rat
# Protocol: as §6, §8
# Inositol phosphates were separated by an anion-exchange HPLC system using a Whatman Partisil 10μ SAX column in a Waters Radial Compression Unit, employing a complex ammonium phosphate gradient, pH 3.8 from 0-2 M as described previously (24). Inositol phosphates were detected and quantitated using an on-line […] (model CR, Radiomatic Instruments) All peaks were identified by comparison with commercial standards. Nucleotide standards AMP, ADP, and ATP were run with samples to assess column performance.
Compound,effect on reperfusion arrhythmias [1],Reperfusion-induced arrhythmias VF % incidence ([1]; 0.015 mM) [%],Reperfusion-induced arrhythmias VT % incidence ([1]; 0.015 mM) [%],Reperfusion-induced arrhythmias VF % incidence ([1]; 0.15 mM) [%],Reperfusion-induced arrhythmias VT % incidence ([1]; 0.15 mM) [%],Reperfusion-induced arrhythmias VF % incidence ([1]; 1.5 mM) [%],Reperfusion-induced arrhythmias VT % incidence ([1]; 1.5 mM) [%],arrhythmias occurring during the ischaemic phase [1],"potency of inhibition of reperfusion-induced Ins(1,4,5)P3 release relative to neomycin [2]","Ins(1,4,5)P3 mass ([2]; 0.015 mM) [pmol/mg protein]","Ins(1,4,5)P3 mass ([2]; 0.15 mM) [pmol/mg protein]","Ins(1,4,5)P3 mass ([2]; 1.5 mM) [pmol/mg protein]",pEC50 [3],pEC50 [6],pEC50 [7],other results
gentamicin,inhibited,25,58,27,27,8,17,partial inhibition,more potent inhibitors,145 ± 2,136 ± 22,102 ± 17,3.89,4.82,3.30,"rank of potency against reperfusion arrhythmias [1]: most potent agent tested; inhibition of thrombin-stimulated release of Ins(1,4,5)P3 [4]: inhibited; thrombin-induced reperfusion arrhythmias [5]: inhibited; size of ischaemic area vs control animals ([8]; dye method, 2.5-10 mg/Kg/min): no difference; arrhythmias occurring under ischaemic conditions in vivo ([8]; infused 2.5-10 mg/Kg/min): effective; development of reperfusion arrhythmias in vivo ([8]; infused 2.5-10 mg/Kg/min): inhibited; VF% reperfusion arrhythmias in vivo ([8]; infused 2.5-10 mg/Kg/min, 10 min occlusion then reperfusion, n 10, control 68): 0%; VT% reperfusion arrhythmias in vivo ([8]; infused 2.5-10 mg/Kg/min, 10 min occlusion then reperfusion, n 10, control 100): 30%"
[H]/N=C(/N)N[C@H]1[C@H](O)[C@@H](O)[C@H](O[C@@H]2O[C@@H](C)[C@](O)(C=O)[C@H]2O[C@@H]2O[C@@H](CO)[C@H](O)[C@@H](O)[C@@H]2NC)[C@@H](N/C(N)=N\[H])[C@@H]1O [streptomycin],inhibited,27,45,6,25,27,45,partial inhibition,more potent inhibitors,201 ± 16,167 ± 5,94 ± 11,3.42,3.82,2.55,pEC50 [9]: 3.90
COc1ccc2c(c1)CC[C@@H]1[C@@H]2CC[C@]2(C)[C@@H](NCCCCCCN3C(=O)C=CC3=O)CC[C@@H]12 [U-73122],,,,,,,,,,,,,,,,"anti-arrhythmic activity [1]: without anti-arrhythmic activity; VF% ([1]; 10^-6 M, n 12, control 63): 61%; VT% ([1]; 10^-6 M, n 12, control 100): 88%; inhibition of accumulation of inositol phosphates [10]: fully effective inhibitor; release of Ins(1,4,5)P3 in intact heart preparations [11]: did not inhibit; inhibition of accumulation of inositol phosphates ([11]; heart tissue under noradrenaline stimulation): did not inhibit"
